Laboratory results: PubChem BioAssay (NCI)
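Each compound was tested at five concentrations against cells in 96-well plates for 48 hours. The concentration for 50% growth inhibition is given as GI50. TGI denotes the concentration required for complete inhibition of growth.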

Experiments:
Experiment in all cases: inhibition of tumour cell growth, NCI panel, 48 h
HL-60(TB) leukemia = test system: HL-60(TB) leukemia
COLO 205 colon = test system: COLO 205 colon
OVCAR-5 ovarian = test system: OVCAR-5 ovarian
HOP-92 NSCLC = test system: HOP-92 NSCLC
U251 CNS = test system: U251 CNS
HCT-15 colon = test system: HCT-15 colon
HOP-62 NSCLC = test system: HOP-62 NSCLC
HCC-2998 colon = test system: HCC-2998 colon
SF-295 CNS = test system: SF-295 CNS
OVCAR-4 ovarian = test system: OVCAR-4 ovarian
KM12 colon = test system: KM12 colon
NCI-H460 lung = test system: NCI-H460 lung
HCT-116 colon = test system: HCT-116 colon
NCI/ADR-RES ovarian = test system: NCI/ADR-RES ovarian
SF-539 CNS = test system: SF-539 CNS
CCRF-CEM leukemia = test system: CCRF-CEM leukemia
NCI-H522 lung = test system: NCI-H522 lung
SW-620 colon = test system: SW-620 colon
OVCAR-8 ovarian = test system: OVCAR-8 ovarian
NCI-H226 lung = test system: NCI-H226 lung
DU-145 prostate = test system: DU-145 prostate
SK-MEL-28 melanoma = test system: SK-MEL-28 melanoma
SNB-19 CNS = test system: SNB-19 CNS
A549 NSCLC = test system: A549 NSCLC
MDA-MB-231 breast = test system: MDA-MB-231 breast
MCF7 breast = test system: MCF7 breast
UACC-257 melanoma = test system: UACC-257 melanoma
786-0 renal = test system: 786-0 renal
MOLT-4 leukemia = test system: MOLT-4 leukemia
SN12C renal = test system: SN12C renal
NCI-H23 lung = test system: NCI-H23 lung
SK-MEL-5 melanoma = test system: SK-MEL-5 melanoma
T-47D breast = test system: T-47D breast
HT29 colon = test system: HT29 colon
MDA-MB-435 = test system: MDA-MB-435
PC-3 prostate = test system: PC-3 prostate
TK-10 renal = test system: TK-10 renal
SR leukemia = test system: SR leukemia
ACHN renal = test system: ACHN renal
IGROV1 ovarian = test system: IGROV1 ovarian
BT-549 breast = test system: BT-549 breast
M14 melanoma = test system: M14 melanoma
HS 578T breast = test system: HS 578T breast
RXF 393 renal = test system: RXF 393 renal
CAKI-1 renal = test system: CAKI-1 renal
MALME-3M melanoma = test system: MALME-3M melanoma
SNB-75 CNS = test system: SNB-75 CNS
UACC-62 melanoma = test system: UACC-62 melanoma
EKVX NSCLC = test system: EKVX NSCLC
SK-MEL-2 melanoma = test system: SK-MEL-2 melanoma
SF-268 CNS = test system: SF-268 CNS
K-562 leukemia = test system: K-562 leukemia
SK-OV-3 ovarian = test system: SK-OV-3 ovarian
A498 renal = test system: A498 renal

Q: What does the source list for `COc1ccc(-c2csc(N(C(=O)N3CCN(c4cc5c(cc4F)c(=O)c(C(=O)O)cn5C4CC4)CC3)c3ccccc3)n2)cc1`?
A: GI50 (HL-60(TB) leukemia): 2.34 µM; TGI (HL-60(TB) leukemia): 5.94 µM; GI50 (COLO 205 colon): 3 µM; TGI (COLO 205 colon): 9.22 µM; GI50 (OVCAR-5 ovarian): 3.29 µM; TGI (OVCAR-5 ovarian): > 100 µM; GI50 (HOP-92 NSCLC): 0.597 µM; TGI (HOP-92 NSCLC): 2.14 µM; GI50 (U251 CNS): 0.973 µM; TGI (U251 CNS): > 34.3 µM; GI50 (HCT-15 colon): 3.19 µM; TGI (HCT-15 colon): > 100 µM; GI50 (HOP-62 NSCLC): 1.12 µM; TGI (HOP-62 NSCLC): > 79 µM; GI50 (HCC-2998 colon): 4.13 µM; TGI (HCC-2998 colon): > 100 µM; GI50 (SF-295 CNS): 2.49 µM; TGI (SF-295 CNS): 8.61 µM; GI50 (OVCAR-4 ovarian): 1.56 µM; TGI (OVCAR-4 ovarian): > 100 µM; GI50 (KM12 colon): 3.41 µM; TGI (KM12 colon): > 100 µM; GI50 (NCI-H460 lung): 3.12 µM; TGI (NCI-H460 lung): > 100 µM; GI50 (HCT-116 colon): 0.897 µM; TGI (HCT-116 colon): > 63.7 µM; GI50 (NCI/ADR-RES ovarian): 3.78 µM; TGI (NCI/ADR-RES ovarian): > 100 µM; GI50 (SF-539 CNS): 2.93 µM; TGI (SF-539 CNS): 48.7 µM; GI50 (CCRF-CEM leukemia): 3.06 µM; TGI (CCRF-CEM leukemia): > 100 µM; GI50 (NCI-H522 lung): 2.16 µM; TGI (NCI-H522 lung): 6.8 µM; GI50 (SW-620 colon): 4.37 µM; TGI (SW-620 colon): > 100 µM; GI50 (OVCAR-8 ovarian): 2.82 µM; TGI (OVCAR-8 ovarian): > 100 µM; GI50 (NCI-H226 lung): 3.18 µM; TGI (NCI-H226 lung): 21.7 µM; GI50 (DU-145 prostate): 1.49 µM; TGI (DU-145 prostate): > 100 µM; GI50 (SK-MEL-28 melanoma): 5.17 µM; TGI (SK-MEL-28 melanoma): > 100 µM; GI50 (SNB-19 CNS): 1.11 µM; TGI (SNB-19 CNS): > 100 µM; GI50 (A549 NSCLC): 3.01 µM; TGI (A549 NSCLC): 12.1 µM; GI50 (MDA-MB-231 breast): 2.44 µM; TGI (MDA-MB-231 breast): 8.13 µM; GI50 (MCF7 breast): 3.09 µM; TGI (MCF7 breast): > 100 µM; GI50 (UACC-257 melanoma): 2.35 µM; TGI (UACC-257 melanoma): 6.71 µM; GI50 (786-0 renal): 1.15 µM; TGI (786-0 renal): > 66 µM; GI50 (MOLT-4 leukemia): 3.78 µM; TGI (MOLT-4 leukemia): > 100 µM; GI50 (SN12C renal): 2.95 µM; TGI (SN12C renal): > 100 µM; GI50 (NCI-H23 lung): 2.96 µM; TGI (NCI-H23 lung): 18.4 µM; GI50 (SK-MEL-5 melanoma): 2.86 µM; TGI (SK-MEL-5 melanoma): 8.39 µM; GI50 (T-47D breast): 2.65 µM; TGI (T-47D breast): 40.7 µM; GI50 (HT29 colon): 3.62 µM; TGI (HT29 colon): 46.2 µM; GI50 (MDA-MB-435): 3.51 µM; TGI (MDA-MB-435): > 100 µM; GI50 (PC-3 prostate): 2.77 µM; TGI (PC-3 prostate): > 100 µM; GI50 (TK-10 renal): 1.7 µM; TGI (TK-10 renal): 39.9 µM; GI50 (SR leukemia): 2.78 µM; TGI (SR leukemia): > 100 µM; GI50 (ACHN renal): 1.85 µM; TGI (ACHN renal): 5.09 µM; GI50 (IGROV1 ovarian): 1.21 µM; TGI (IGROV1 ovarian): > 100 µM; GI50 (BT-549 breast): 1.6 µM; TGI (BT-549 breast): 7.63 µM; GI50 (M14 melanoma): 3.7 µM; TGI (M14 melanoma): > 100 µM; GI50 (HS 578T breast): 1.48 µM; TGI (HS 578T breast): > 100 µM; GI50 (RXF 393 renal): 0.789 µM; TGI (RXF 393 renal): 14.8 µM; GI50 (CAKI-1 renal): 2.46 µM; TGI (CAKI-1 renal): 8.76 µM; GI50 (MALME-3M melanoma): 2.64 µM; TGI (MALME-3M melanoma): 7.54 µM; GI50 (SNB-75 CNS): 0.812 µM; TGI (SNB-75 CNS): > 25.9 µM; GI50 (UACC-62 melanoma): 2.24 µM; TGI (UACC-62 melanoma): 8.91 µM; GI50 (EKVX NSCLC): 3.3 µM; TGI (EKVX NSCLC): > 100 µM; GI50 (SK-MEL-2 melanoma): 2.2 µM; TGI (SK-MEL-2 melanoma): 5.22 µM; GI50 (SF-268 CNS): 3.2 µM; TGI (SF-268 CNS): > 100 µM; GI50 (K-562 leukemia): 3.1 µM; TGI (K-562 leukemia): > 100 µM; GI50 (SK-OV-3 ovarian): 2.49 µM; TGI (SK-OV-3 ovarian): 7.83 µM; GI50 (A498 renal): 1.34 µM; TGI (A498 renal): 6.42 µM
